Results as given in PubChem BioAssay (NCI).
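48-hour exposure; five concentrations; linearly interpolated endpoints. GI50 = concentration required for 50% inhibition of growth. TGI denotes the concentration required for complete inhibition of growth.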

Assays:
Assay in all cases: inhibition of tumour cell growth, NCI panel, 48 h
[1] = test system: K-562 leukemia
[2] = test system: KM12 colon
[3] = test system: ACHN renal
[4] = test system: RXF 393 renal
[5] = test system: LOX IMVI melanoma
[6] = test system: NCI-H522 lung
[7] = test system: RPMI-8226 leukemia
[8] = test system: UACC-62 melanoma
[9] = test system: COLO 205 colon
[10] = test system: UACC-257 melanoma
[11] = test system: HCC-2998 colon
[12] = test system: SNB-19 CNS
[13] = test system: HOP-92 NSCLC
[14] = test system: HL-60(TB) leukemia
[15] = test system: MOLT-4 leukemia
[16] = test system: UO-31 renal
[17] = test system: OVCAR-4 ovarian
[18] = test system: HS 578T breast
[19] = test system: SNB-75 CNS
[20] = test system: DU-145 prostate
[21] = test system: NCI-H226 lung
[22] = test system: SK-MEL-2 melanoma
[23] = test system: SR leukemia
[24] = test system: HT29 colon
[25] = test system: MALME-3M melanoma
[26] = test system: TK-10 renal
[27] = test system: BT-549 breast
[28] = test system: M14 melanoma
[29] = test system: SK-MEL-5 melanoma
[30] = test system: NCI-H460 lung
[31] = test system: OVCAR-3 ovarian
[32] = test system: SF-539 CNS
[33] = test system: A549 NSCLC
[34] = test system: SK-MEL-28 melanoma
[35] = test system: OVCAR-8 ovarian
[36] = test system: MDA-MB-435
[37] = test system: PC-3 prostate
[38] = test system: SW-620 colon
[39] = test system: MDA-MB-231 breast
[40] = test system: SF-268 CNS
[41] = test system: HCT-116 colon
[42] = test system: U251 CNS
[43] = test system: HOP-62 NSCLC
[44] = test system: T-47D breast
[45] = test system: MCF7 breast
[46] = test system: SN12C renal
[47] = test system: NCI/ADR-RES ovarian
[48] = test system: CAKI-1 renal
[49] = test system: IGROV1 ovarian
[50] = test system: HCT-15 colon
[51] = test system: 786-0 renal
[52] = test system: EKVX NSCLC
[53] = test system: SF-295 CNS
[54] = test system: A498 renal
[55] = test system: OVCAR-5 ovarian
[56] = test system: SK-OV-3 ovarian

SMILES: CC(=O)Oc1ccccc1C(=O)Nc1ccc(C(=O)/C=C/c2ccncc2)cc1
- GI50 [1]: 22.7 µM
- TGI [1]: > 100 µM
- GI50 [2]: 25.9 µM
- TGI [2]: > 100 µM
- GI50 [3]: 59.7 µM
- TGI [3]: > 100 µM
- GI50 [4]: 24.4 µM
- TGI [4]: 98.9 µM
- GI50 [5]: 12.8 µM
- TGI [5]: 34.8 µM
- GI50 [6]: > 100 µM
- TGI [6]: > 100 µM
- GI50 [7]: 15 µM
- TGI [7]: 49.2 µM
- GI50 [8]: > 100 µM
- TGI [8]: > 100 µM
- GI50 [9]: 38.1 µM
- TGI [9]: > 100 µM
- GI50 [10]: > 100 µM
- TGI [10]: > 100 µM
- GI50 [11]: 22.2 µM
- TGI [11]: 55.2 µM
- GI50 [12]: > 100 µM
- TGI [12]: > 100 µM
- GI50 [13]: 4.6 µM
- TGI [13]: > 100 µM
- GI50 [14]: 34.8 µM
- TGI [14]: > 100 µM
- GI50 [15]: 40.2 µM
- TGI [15]: > 100 µM
- GI50 [16]: 63.2 µM
- TGI [16]: > 100 µM
- GI50 [17]: 85.8 µM
- TGI [17]: > 100 µM
- GI50 [18]: 57.4 µM
- TGI [18]: > 100 µM
- GI50 [19]: > 100 µM
- TGI [19]: > 100 µM
- GI50 [20]: 58.2 µM
- TGI [20]: > 100 µM
- GI50 [21]: > 100 µM
- TGI [21]: > 100 µM
- GI50 [22]: > 100 µM
- TGI [22]: > 100 µM
- GI50 [23]: 22.4 µM
- TGI [23]: 89.5 µM
- GI50 [24]: 30.5 µM
- TGI [24]: > 100 µM
- GI50 [25]: > 100 µM
- TGI [25]: > 100 µM
- GI50 [26]: > 100 µM
- TGI [26]: > 100 µM
- GI50 [27]: 25.1 µM
- TGI [27]: > 100 µM
- GI50 [28]: 40.8 µM
- TGI [28]: > 100 µM
- GI50 [29]: > 100 µM
- TGI [29]: > 100 µM
- GI50 [30]: 36.6 µM
- TGI [30]: > 100 µM
- GI50 [31]: 36.1 µM
- TGI [31]: > 100 µM
- GI50 [32]: 30.5 µM
- TGI [32]: > 100 µM
- GI50 [33]: > 100 µM
- TGI [33]: > 100 µM
- GI50 [34]: > 100 µM
- TGI [34]: > 100 µM
- GI50 [35]: > 100 µM
- TGI [35]: > 100 µM
- GI50 [36]: 27.8 µM
- TGI [36]: > 100 µM
- GI50 [37]: 49.8 µM
- TGI [37]: > 100 µM
- GI50 [38]: 24.3 µM
- TGI [38]: > 100 µM
- GI50 [39]: > 100 µM
- TGI [39]: > 100 µM
- GI50 [40]: 61.8 µM
- TGI [40]: > 100 µM
- GI50 [41]: 13.3 µM
- TGI [41]: 28.2 µM
- GI50 [42]: 35.6 µM
- TGI [42]: > 100 µM
- GI50 [43]: > 100 µM
- TGI [43]: > 100 µM
- GI50 [44]: 60 µM
- TGI [44]: > 100 µM
- GI50 [45]: 6.13 µM
- TGI [45]: > 100 µM
- GI50 [46]: 55.3 µM
- TGI [46]: > 100 µM
- GI50 [47]: > 100 µM
- TGI [47]: > 100 µM
- GI50 [48]: 42.8 µM
- TGI [48]: > 100 µM
- GI50 [49]: 51.7 µM
- TGI [49]: > 100 µM
- GI50 [50]: 25.7 µM
- TGI [50]: > 100 µM
- GI50 [51]: > 100 µM
- TGI [51]: > 100 µM
- GI50 [52]: > 100 µM
- TGI [52]: > 100 µM
- GI50 [53]: > 100 µM
- TGI [53]: > 100 µM
- GI50 [54]: > 100 µM
- TGI [54]: > 100 µM
- GI50 [55]: > 100 µM
- TGI [55]: > 100 µM
- GI50 [56]: > 100 µM
- TGI [56]: > 100 µM
